In the supplement of paper PMC4862054:

What follows are compounds tested on MDA-MB-453 (assay: normalised response (% of control), CellTiter-Glo; higher = more viable cells (100 = DMSO, 0 = benzethonium chloride kill control)). Conditions: incubation time: 72 h.
How it was run: (§1)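 A 20 µl suspension of breast cancer cells was seeded into each well of 384-well plates containing compound at 5 concentrations in 10-fold steps over a compound-specific 10,000-fold range. After 72 h incubation, CellTox Green fluorescence (485/520 nm) was read first, and CellTiter-Glo luminescence was read after 10 min at room temperature. Each plate was normalised against 0.1 % DMSO (100) and a positive kill control (0), and each value is the normalised signal at one concentration.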

Row | Structure (SMILES) | normalised response [%]
1 | Cc1ccc(C(=O)N(CCCN)[C@@H](c2oc3cc(Cl)ccc3c(=O)c2Cc2ccccc2)C(C)C)cc1 (10 nM) | 94.8
2 | CC(=O)Nc1ccc(C(=O)Nc2ccccc2N)cc1 [Tacedinaline] (100 nM) | 102
3 | NC(=O)Nc1cc(-c2cccc(F)c2)sc1C(=O)N[C@H]1CCCNC1 [AZD7762] (100 nM) | 83.2
4 | O=C(O)c1ccc(-c2c[nH]c3ncc(-c4ccccc4)cc23)cc1C1CCCC1 (1000 nM) | 96.8
5 | CCCCCCCCCCCCCCCCCCOP(=O)([O-])OC1CC[N+](C)(C)CC1 [Perifosine] (250 nM) | 98.2
6 | CCC(C)(C)C(=O)O[C@H]1C[C@@H](C)C=C2C=C[C@H](C)[C@H](CC[C@@H]3C[C@@H](O)CC(=O)O3)[C@H]21 [Simvastatin] (1000 nM) | 102
7 | N.N.[Cl][Pt][Cl] [Cisplatin] (100 nM) | 94.9
8 | N#CCNC(=O)c1ccc(-c2ccnc(Nc3ccc(N4CCOCC4)cc3)n2)cc1 [Momelotinib] (1000 nM) | 113
9 | C[C@@H](Oc1cc(-c2cnn(C3CCNCC3)c2)cnc1N)c1c(Cl)ccc(F)c1Cl [Crizotinib] (100 nM) | 91.7

These compounds were tested on HDQ-P1 in the same assay as above. Conditions: incubation time: 72 h.
How it was run: as §1

Row | Structure (SMILES) | normalised response [%]
10 | Cc1ccc(C(=O)N(CCCN)[C@@H](c2oc3cc(Cl)ccc3c(=O)c2Cc2ccccc2)C(C)C)cc1 (10 nM) | 103
11 | CC(=O)Nc1ccc(C(=O)Nc2ccccc2N)cc1 [Tacedinaline] (100 nM) | 100
12 | NC(=O)Nc1cc(-c2cccc(F)c2)sc1C(=O)N[C@H]1CCCNC1 [AZD7762] (100 nM) | 95.2
13 | O=C(O)c1ccc(-c2c[nH]c3ncc(-c4ccccc4)cc23)cc1C1CCCC1 (1000 nM) | 105
14 | CCCCCCCCCCCCCCCCCCOP(=O)([O-])OC1CC[N+](C)(C)CC1 [Perifosine] (250 nM) | 105
15 | CCC(C)(C)C(=O)O[C@H]1C[C@@H](C)C=C2C=C[C@H](C)[C@H](CC[C@@H]3C[C@@H](O)CC(=O)O3)[C@H]21 [Simvastatin] (1000 nM) | 92.6
16 | N.N.[Cl][Pt][Cl] [Cisplatin] (100 nM) | 107
17 | N#CCNC(=O)c1ccc(-c2ccnc(Nc3ccc(N4CCOCC4)cc3)n2)cc1 [Momelotinib] (1000 nM) | 107
18 | C[C@@H](Oc1cc(-c2cnn(C3CCNCC3)c2)cnc1N)c1c(Cl)ccc(F)c1Cl [Crizotinib] (100 nM) | 98.8

What follows are compounds tested on BT-549 in the same assay as above. Conditions: incubation time: 72 h.
How it was run: as §1

Row | Structure (SMILES) | normalised response [%]
19 | Cc1ccc(C(=O)N(CCCN)[C@@H](c2oc3cc(Cl)ccc3c(=O)c2Cc2ccccc2)C(C)C)cc1 (10 nM) | 100
20 | CC(=O)Nc1ccc(C(=O)Nc2ccccc2N)cc1 [Tacedinaline] (100 nM) | 106
21 | NC(=O)Nc1cc(-c2cccc(F)c2)sc1C(=O)N[C@H]1CCCNC1 [AZD7762] (100 nM) | 73.4
22 | O=C(O)c1ccc(-c2c[nH]c3ncc(-c4ccccc4)cc23)cc1C1CCCC1 (1000 nM) | 100
23 | CCCCCCCCCCCCCCCCCCOP(=O)([O-])OC1CC[N+](C)(C)CC1 [Perifosine] (250 nM) | 97
24 | CCC(C)(C)C(=O)O[C@H]1C[C@@H](C)C=C2C=C[C@H](C)[C@H](CC[C@@H]3C[C@@H](O)CC(=O)O3)[C@H]21 [Simvastatin] (1000 nM) | 93.6
25 | N.N.[Cl][Pt][Cl] [Cisplatin] (100 nM) | 90.4
26 | N#CCNC(=O)c1ccc(-c2ccnc(Nc3ccc(N4CCOCC4)cc3)n2)cc1 [Momelotinib] (1000 nM) | 89.6
27 | C[C@@H](Oc1cc(-c2cnn(C3CCNCC3)c2)cnc1N)c1c(Cl)ccc(F)c1Cl [Crizotinib] (100 nM) | 90.4

The compounds below were run on DU-4475 in the same assay as above. Conditions: incubation time: 72 h.
How it was run: as §1

Row | Structure (SMILES) | normalised response [%]
28 | Cc1ccc(C(=O)N(CCCN)[C@@H](c2oc3cc(Cl)ccc3c(=O)c2Cc2ccccc2)C(C)C)cc1 (10 nM) | 96.5
29 | CC(=O)Nc1ccc(C(=O)Nc2ccccc2N)cc1 [Tacedinaline] (100 nM) | 93.6
30 | NC(=O)Nc1cc(-c2cccc(F)c2)sc1C(=O)N[C@H]1CCCNC1 [AZD7762] (100 nM) | 98.4
31 | O=C(O)c1ccc(-c2c[nH]c3ncc(-c4ccccc4)cc23)cc1C1CCCC1 (1000 nM) | 91.4
32 | CCCCCCCCCCCCCCCCCCOP(=O)([O-])OC1CC[N+](C)(C)CC1 [Perifosine] (250 nM) | 96.5
33 | N.N.[Cl][Pt][Cl] [Cisplatin] (100 nM) | 90.2
34 | N#CCNC(=O)c1ccc(-c2ccnc(Nc3ccc(N4CCOCC4)cc3)n2)cc1 [Momelotinib] (1000 nM) | 90.5
35 | C[C@@H](Oc1cc(-c2cnn(C3CCNCC3)c2)cnc1N)c1c(Cl)ccc(F)c1Cl [Crizotinib] (100 nM) | 99.2

These compounds were tested on HCC1937 in the same assay as above. Conditions: incubation time: 72 h.
How it was run: as §1

Row | Structure (SMILES) | normalised response [%]
36 | Cc1ccc(C(=O)N(CCCN)[C@@H](c2oc3cc(Cl)ccc3c(=O)c2Cc2ccccc2)C(C)C)cc1 (10 nM) | 101
37 | CC(=O)Nc1ccc(C(=O)Nc2ccccc2N)cc1 [Tacedinaline] (100 nM) | 102
38 | NC(=O)Nc1cc(-c2cccc(F)c2)sc1C(=O)N[C@H]1CCCNC1 [AZD7762] (100 nM) | 97.2
39 | O=C(O)c1ccc(-c2c[nH]c3ncc(-c4ccccc4)cc23)cc1C1CCCC1 (1000 nM) | 97
40 | CCCCCCCCCCCCCCCCCCOP(=O)([O-])OC1CC[N+](C)(C)CC1 [Perifosine] (250 nM) | 101
41 | CCC(C)(C)C(=O)O[C@H]1C[C@@H](C)C=C2C=C[C@H](C)[C@H](CC[C@@H]3C[C@@H](O)CC(=O)O3)[C@H]21 [Simvastatin] (1000 nM) | 98.4
42 | N.N.[Cl][Pt][Cl] [Cisplatin] (100 nM) | 102
43 | N#CCNC(=O)c1ccc(-c2ccnc(Nc3ccc(N4CCOCC4)cc3)n2)cc1 [Momelotinib] (1000 nM) | 108
44 | C[C@@H](Oc1cc(-c2cnn(C3CCNCC3)c2)cnc1N)c1c(Cl)ccc(F)c1Cl [Crizotinib] (100 nM) | 98.5

The compounds below were run on Hs578T in the same assay as above. Conditions: incubation time: 72 h.
How it was run: as §1

Row | Structure (SMILES) | normalised response [%]
45 | Cc1ccc(C(=O)N(CCCN)[C@@H](c2oc3cc(Cl)ccc3c(=O)c2Cc2ccccc2)C(C)C)cc1 (10 nM) | 97.5
46 | CC(=O)Nc1ccc(C(=O)Nc2ccccc2N)cc1 [Tacedinaline] (100 nM) | 98.4
47 | NC(=O)Nc1cc(-c2cccc(F)c2)sc1C(=O)N[C@H]1CCCNC1 [AZD7762] (100 nM) | 93
48 | O=C(O)c1ccc(-c2c[nH]c3ncc(-c4ccccc4)cc23)cc1C1CCCC1 (1000 nM) | 94.1
49 | CCCCCCCCCCCCCCCCCCOP(=O)([O-])OC1CC[N+](C)(C)CC1 [Perifosine] (250 nM) | 104
50 | CCC(C)(C)C(=O)O[C@H]1C[C@@H](C)C=C2C=C[C@H](C)[C@H](CC[C@@H]3C[C@@H](O)CC(=O)O3)[C@H]21 [Simvastatin] (1000 nM) | 92.9
51 | N.N.[Cl][Pt][Cl] [Cisplatin] (100 nM) | 102
52 | N#CCNC(=O)c1ccc(-c2ccnc(Nc3ccc(N4CCOCC4)cc3)n2)cc1 [Momelotinib] (1000 nM) | 93
53 | C[C@@H](Oc1cc(-c2cnn(C3CCNCC3)c2)cnc1N)c1c(Cl)ccc(F)c1Cl [Crizotinib] (100 nM) | 99.7

The compounds below were run on SK-BR-3 in the same assay as above. Conditions: incubation time: 72 h.
How it was run: as §1

Row | Structure (SMILES) | normalised response [%]
54 | Cc1ccc(C(=O)N(CCCN)[C@@H](c2oc3cc(Cl)ccc3c(=O)c2Cc2ccccc2)C(C)C)cc1 (10 nM) | 92.5
55 | CC(=O)Nc1ccc(C(=O)Nc2ccccc2N)cc1 [Tacedinaline] (100 nM) | 95.4
56 | NC(=O)Nc1cc(-c2cccc(F)c2)sc1C(=O)N[C@H]1CCCNC1 [AZD7762] (100 nM) | 99.6
57 | O=C(O)c1ccc(-c2c[nH]c3ncc(-c4ccccc4)cc23)cc1C1CCCC1 (1000 nM) | 90.2
58 | CCCCCCCCCCCCCCCCCCOP(=O)([O-])OC1CC[N+](C)(C)CC1 [Perifosine] (250 nM) | 97.7
59 | CCC(C)(C)C(=O)O[C@H]1C[C@@H](C)C=C2C=C[C@H](C)[C@H](CC[C@@H]3C[C@@H](O)CC(=O)O3)[C@H]21 [Simvastatin] (1000 nM) | 106
60 | N.N.[Cl][Pt][Cl] [Cisplatin] (100 nM) | 99.2
61 | N#CCNC(=O)c1ccc(-c2ccnc(Nc3ccc(N4CCOCC4)cc3)n2)cc1 [Momelotinib] (1000 nM) | 86.6
62 | C[C@@H](Oc1cc(-c2cnn(C3CCNCC3)c2)cnc1N)c1c(Cl)ccc(F)c1Cl [Crizotinib] (100 nM) | 92.4

The compounds below were run on MCF-10A in the same assay as above. Conditions: incubation time: 72 h.
How it was run: as §1

Row | Structure (SMILES) | normalised response [%]
63 | Cc1ccc(C(=O)N(CCCN)[C@@H](c2oc3cc(Cl)ccc3c(=O)c2Cc2ccccc2)C(C)C)cc1 (10 nM) | 103
64 | CC(=O)Nc1ccc(C(=O)Nc2ccccc2N)cc1 [Tacedinaline] (100 nM) | 93.7
65 | NC(=O)Nc1cc(-c2cccc(F)c2)sc1C(=O)N[C@H]1CCCNC1 [AZD7762] (100 nM) | 91.6
66 | O=C(O)c1ccc(-c2c[nH]c3ncc(-c4ccccc4)cc23)cc1C1CCCC1 (1000 nM) | 100
67 | CCCCCCCCCCCCCCCCCCOP(=O)([O-])OC1CC[N+](C)(C)CC1 [Perifosine] (250 nM) | 110
68 | CCC(C)(C)C(=O)O[C@H]1C[C@@H](C)C=C2C=C[C@H](C)[C@H](CC[C@@H]3C[C@@H](O)CC(=O)O3)[C@H]21 [Simvastatin] (1000 nM) | 111
69 | N.N.[Cl][Pt][Cl] [Cisplatin] (100 nM) | 1.72
70 | N#CCNC(=O)c1ccc(-c2ccnc(Nc3ccc(N4CCOCC4)cc3)n2)cc1 [Momelotinib] (1000 nM) | 77
71 | C[C@@H](Oc1cc(-c2cnn(C3CCNCC3)c2)cnc1N)c1c(Cl)ccc(F)c1Cl [Crizotinib] (100 nM) | 107

Each compound was assayed on MDA-MB-231 in the same assay as above. Conditions: incubation time: 72 h.
How it was run: as §1

Row | Structure (SMILES) | normalised response [%]
72 | Cc1ccc(C(=O)N(CCCN)[C@@H](c2oc3cc(Cl)ccc3c(=O)c2Cc2ccccc2)C(C)C)cc1 (10 nM) | 98.8
73 | CC(=O)Nc1ccc(C(=O)Nc2ccccc2N)cc1 [Tacedinaline] (100 nM) | 102
74 | NC(=O)Nc1cc(-c2cccc(F)c2)sc1C(=O)N[C@H]1CCCNC1 [AZD7762] (100 nM) | 88.7
75 | O=C(O)c1ccc(-c2c[nH]c3ncc(-c4ccccc4)cc23)cc1C1CCCC1 (1000 nM) | 92.4
76 | CCCCCCCCCCCCCCCCCCOP(=O)([O-])OC1CC[N+](C)(C)CC1 [Perifosine] (250 nM) | 102
77 | CCC(C)(C)C(=O)O[C@H]1C[C@@H](C)C=C2C=C[C@H](C)[C@H](CC[C@@H]3C[C@@H](O)CC(=O)O3)[C@H]21 [Simvastatin] (1000 nM) | 81.6
78 | N.N.[Cl][Pt][Cl] [Cisplatin] (100 nM) | 98.7
79 | N#CCNC(=O)c1ccc(-c2ccnc(Nc3ccc(N4CCOCC4)cc3)n2)cc1 [Momelotinib] (1000 nM) | 77.2
80 | C[C@@H](Oc1cc(-c2cnn(C3CCNCC3)c2)cnc1N)c1c(Cl)ccc(F)c1Cl [Crizotinib] (100 nM) | 98.6
